Legend:
P. aeruginosa = assay: In vitro antibacterial assay (zone of inhibition, MIC); assay type: cell-based, Pseudomonas aeruginosa; conditions: P. aeruginosa
Protocol: (§1) The free ligands and their cyclometallated ruthenium(II) carbonyl complexes were screened for their in vitro antimicrobial activity against certain pathogenic bacterial and fungal species at three different concentrations using disc diffusion method.
(§2) Antimicrobial activities of [RuHClCO(PPh3)3], ligands H2L^1–4 and new organometallic Ru(II) complexes (1–4) were evaluated by agar well diffusion method[76] as reported, by taking Staphylococcus aureus, Streptococcus pneumonie, Pseudomonas aeruginosa, Salmonella paratyphi and fungus such as Candida albicans, Trichophyton rubrum, Aspergillus niger, Aspergillus fumigatus and Candida tropicalis. The above said all test organisms were obtained from the MTCC, Chandigarh, India and Microbiological laboratory, Coimbatore, Tamil Nadu, India. The antimicrobial activity of the test compounds was checked with various concentrations (25 μg ml^−1, 50 μg ml^−1 and 100 μg ml^−1) against all the test pathogens. Gentamicin and ketoconazole were used as positive controls to study the antibacterial and antifungal activities respectively. Each experiment was performed in triplicate and the results are represented as average zone of inhibition and minimum inhibitory concentration of all the test pathogens.

S. pneumonie = assay: as above; assay type: cell-based, Streptococcus pneumonie; conditions: S. pneumonie
Protocol: as §1, §2

S. aureus = assay: as above; assay type: cell-based, Staphylococcus aureus; conditions: S. aureus
Protocol: as §1, §2

S. paratyphi = assay: as above; assay type: cell-based, Salmonella paratyphi
Source text: The free ligands and their cyclometallated ruthenium(II) carbonyl complexes were screened for their in vitro antimicrobial activity against certain pathogenic bacterial and fungal species at three different concentrations using disc diffusion method. […] Tested complexes had better antimicrobial activity than the ligands against all pathogens. This may be explained by Tweedy's chelation theory.[61] Coordination of ligands reduce the polarity of the metal ion essentially by partial sharing of its positive charge with the donor groups within the chelate ring system formed during the coordination and leading to the increase in lipophilic nature of the central metal atom, which favours the effective permeation through the lipid layer of microorganism.[61,62] […] When tested against T. rubrum, the activity of the complexes in the order of 3 > 2 > 1 > 4. In antibacterial studies, the complex 3 was effective against S. aureus followed by complex 2, 1 and 4 and in the case of S. pneumonie the activity of the complexes follows the order of 3 > 1 > 4 > 2. […] When tested against S. paratyphi complex 1 stood out as good followed by the complexes 4, 3 and 2 respectively.
as §2

Candida tropicalis = assay: In vitro antifungal assay (zone of inhibition, MIC); assay type: cell-based
Protocol: as §1, §2

Trichophyton rubrum = assay: as above; assay type: cell-based
Protocol: as §1, §2

Aspergillus niger = assay: as above; assay type: cell-based
Protocol: as §1, §2

Aspergillus fumigatus = assay: as above; assay type: cell-based
Protocol: as §1, §2

C. albicans = assay: as above; assay type: cell-based, Candida albicans; conditions: C. albicans
Protocol: as §1, §2

[1] = tested on: human normal keratinocyte cells (HaCaT); assay: MTT cytotoxicity assay; assay type: cell-based; conditions: MTT, 48 h, normal cells; read-out: IC50 values HaCaT
Protocol: In order to investigate the selectivity of the compounds for cancer cells rather than normal cell lines, the compounds were also screened for their anticancer activity on the human normal keratinocyte cells (HaCaT).
(§3) Cytotoxic activity of the compounds was tested with human lung cancer cell lines A549, human breast cancer cell lines MCF-7 and human normal keratinocyte cells (HaCaT) by using MTT assay, which was done according to the earlier literature methods[77] and IC50 values obtained from nonlinear regression using GraphPad Prism 5.[78] The LDH release[79] and NO release[80] assays of the compounds was evaluated by the earlier reported methods.

[2] = Total antioxidant capacity, phosphomolybdate method
Protocol: (§4) It has been reported that free radical species such as reactive oxygen species (ROS), are involved in the pathogenesis of various diseases through effects on DNA directly and by acting as a tumour promoter.[59,60] The DPPH free radical scavenging activity of the ligands and complexes were studied and quantitatively antioxidant properties were determined by using phosphomolybdate method. We knew that the inhibitory effects of the tested compounds on DPPH radical are concentration dependent and the suppression ratio increases with increasing sample concentrations (Fig. S36 ^†). […] In the phosphomolybdenum assay, the antioxidant activity is expressed as the number of equivalents of ascorbic acid (Table 6). The total antioxidant activity of the compounds is in the following order complex 3 > complex 2 > complex 1 > complex 4 > H2L^3 > H2L^2 > H2L^1 > H2L^4 > ascorbic acid > [RuHClCO(PPh3)3]. The results concluded that the metal complexes are better antioxidants than their parent ligands which may be due to the chelation of the ligands to metal ion.[35] The radical scavenging ability of the new complexes is greater than that of few other reported ruthenium complexes, containing Schiff base ligands.[9]
(§5) The DPPH radical scavenging activity of the compounds have been carried out according to the reported method.[74] In this study, various concentrations of the experimental standard ascorbic acid, [RuHCl(CO)(PPh3)3], ligands (20–100 μM) and complexes (2–10 μM) in methanol were taken. Total antioxidant activity of the compounds was determined by the phosphomolybdate method.[75]

[3] = tested on: human lung carcinoma cancer cell line A549; assay: MTT cytotoxicity assay; assay type: cell-based; conditions: MTT, 48 h; read-out: IC50 values A549
Source text: (§6) The DNA/protein binding studies, antioxidant and antimicrobial studies had shown that the ligands and ruthenium(II) complexes studied here have therapeutic potentials and were subjected to study their anticancer activity. A number of coumarin derivatives have shown considerable anticancer activity against a number of cell lines. All the 3-acetyl-7-methoxy-coumarin-4(N)-substituted thiosemicarbazone ligands, metal precursor [RuHClCO(PPh3)3] and their new cyclometallated Ru(II) complexes were assessed for their cytotoxicity with two human derived cell lines namely human lung carcinoma (A549) and human breast cancer cells (MCF-7) by using MTT assay. For comparison purpose, cisplatin was used as a positive control under identical conditions.
as §3

[4] = tested on: human breast cancer cell line MCF-7; assay: MTT cytotoxicity assay; assay type: cell-based; conditions: MTT, 48 h; read-out: IC50 values MCF-7
Source text: as §6, §3

[5] = DPPH radical scavenging assay; conditions: in methanol
Protocol: as §4, §5

`CNC(C)C1CCC(N)C(OC2C(N)CC(N)C(OC3OCC(C)(O)C(NC)C3O)C2O)O1` (stereo not shown) [Gentamicin, reference compound] showed a zone of inhibition at 25 µg/mL (P. aeruginosa; Pseudomonas aeruginosa, 25 µg/ml) of 20.2 ± 0.22 mm, a zone of inhibition at 25 µg/mL (S. pneumonie; Streptococcus, 25 µg/ml) of 20.3 ± 0.39 mm and a zone of inhibition at 25 µg/mL (S. aureus; Staphylococcus aureus, 25 µg/ml) of 20.3 ± 0.43 mm. For the same molecule, the zone of inhibition at 25 µg/mL (S. paratyphi; Salmonella enterica, 25 µg/ml) was 20.4 ± 0.44 mm.

`CC(=O)N1CCN(c2ccc(OCC3COC(Cn4ccnc4)(c4ccc(Cl)cc4Cl)O3)cc2)CC1` (stereo not shown) [Ketaconazole, reference compound] gave a zone of inhibition at 25 µg/mL (Candida tropicalis; 25 µg/ml) of 19.5 ± 0.23 mm, a zone of inhibition at 25 µg/mL (Trichophyton rubrum; 25 µg/ml) of 24.12 ± 0.16 mm and a zone of inhibition at 25 µg/mL (Aspergillus niger; 25 µg/ml) of 21.89 ± 0.11 mm. The zone of inhibition at 25 µg/mL (Aspergillus fumigatus; 25 µg/ml) was 23 ± 0.25 mm and the zone of inhibition at 25 µg/mL (C. albicans; Candida albicans, 25 µg/ml) was 20.34 ± 0.2 mm.

In the case of `[C-]#[O+].[Cl][RuH].c1ccc(P(c2ccccc2)c2ccccc2)cc1.c1ccc(P(c2ccccc2)c2ccccc2)cc1.c1ccc(P(c2ccccc2)c2ccccc2)cc1` [[RuHClCO(PPh3)3], reference compound], the IC50 [1] is reported as greater than 40 µM, the “Minimum inhibitory concentration (MIC); head: IC50 VALUES” (from here on “Minimum inhibitory concentration (MIC)”) (P. aeruginosa) is reported as 30.19 ± 0.53 µM and the Zone of inhibition (P. aeruginosa; 50 µg/ml) is reported as 15.78±0.44 mm. The Zone of inhibition (P. aeruginosa; 100 µg/ml) was 17.89±0.42 mm, the “Minimum inhibitory concentration (MIC)” value (Candida tropicalis) was 28.79 ± 0.41 µM and the Zone of inhibition (Candida tropicalis; 50 µg/ml) was 14.78±0.43 mm. The Zone of inhibition (Candida tropicalis; 100 µg/ml) was 18.59±0.41 mm, the “Minimum inhibitory concentration (MIC)” value (Trichophyton rubrum) was 31.76 ± 0.42 µM and the Zone of inhibition (Trichophyton rubrum; 50 µg/ml) was 14.18±0.54 mm. For the same molecule, the Zone of inhibition (Trichophyton rubrum; 100 µg/ml) was 17.91±0.24 mm, the “Minimum inhibitory concentration (MIC)” value (Aspergillus niger) was 31.63 ± 0.59 µM and the Zone of inhibition (Aspergillus niger; 50 µg/ml) was 13.19±0.34 mm. The Zone of inhibition (Aspergillus niger; 100 µg/ml) was 15.14±0.31 mm, the “Minimum inhibitory concentration (MIC)” value (Aspergillus fumigatus) was 29.75 ± 0.54 µM and the Zone of inhibition (Aspergillus fumigatus; 50 µg/ml) was 15.58±0.65 mm. The Zone of inhibition (Aspergillus fumigatus; 100 µg/ml) was 18.38±0.65 mm, the Total antioxidant capacity [2] was 07.02 ± 0.08 μg ascorbic acid equivalents/ml and the “Minimum inhibitory concentration (MIC)” value (C. albicans) was 26.09 ± 0.48 µM. The Zone of inhibition (C. albicans; 50 µg/ml) was 13.29±0.45 mm, the Zone of inhibition (C. albicans; 100 µg/ml) was 16.67±0.11 mm and the “Minimum inhibitory concentration (MIC)” value (S. pneumonie) was 33.05 ± 0.28 µM. For the same molecule, the Zone of inhibition (S. pneumonie; 50 µg/ml) was 14.39±0.34 mm, the Zone of inhibition (S. pneumonie; 100 µg/ml) was 16.44±0.11 mm and the IC50 [3] was 16 ± 0.21 µM. The IC50 [4] was 20.1 ± 0.18 µM, the “Minimum inhibitory concentration (MIC)” value (S. aureus) was 35.84 ± 0.37 µM and the Zone of inhibition (S. aureus; 50 µg/ml) was 15.19±0.08 mm. It also gave a Zone of inhibition (S. aureus; 100 µg/ml) of 17.67±0.78 mm, a Zone of inhibition (S. paratyphi; 50 µg/ml) of 13.29±0.65 mm and a Zone of inhibition (S. paratyphi; 100 µg/ml) of 17.44±0.55 mm.

`O=C1O[C@H]([C@@H](O)CO)C(O)=C1O` [vitamin C, ascorbic acid, reference compound] gave an IC50 [5] of 98.7 ± 1.5 µM.

In the case of `N.N.[Cl][Pt][Cl]` [Cisplatin, reference compound], the IC50 [1] is reported as greater than 40 µM, the IC50 [3] is reported as 15.1 ± 0.05 µM and the IC50 [4] is reported as 16.79 ± 0.08 µM.
